Measured values reported in ChEMBL document CHEMBL6083251, “"Pseudosubstrate Envelope"/Free Energy Perturbation-Guided Design and Mechanistic Investigations of Benzothiazole HIV Capsid Modulators with High Ligand Efficiency” (J Med Chem, 2024).
Active and inactive are the calls of the source. The calls are words filed in the database; no cut-off is given here.

Legend:
[1] = tested on: Human immunodeficiency virus 2; assay: Anti-HIV activity against HIV-2 ROD infected in human MT-4 cells assessed as protection against virus-induced cytopathic effect incubated for 5 days by spectrophotometric based MTT assay; assay type: functional, organism-based; details: Human immunodeficiency virus 2, ROD, MT4, 120 h
[2] = Selectivity index, ratio of CC50 for human MT4 cells to EC50 for wild type HIV-1 IIIB infected in human MT4 cells; assay type: toxicity, cell-based; details: read-out: Selectivity Index
[3] = Selectivity index, ratio of CC50 for human MT4 cells to EC50 for HIV-2 ROD infected in human MT-4 cells; assay type: toxicity, cell-based; details: read-out: Selectivity Index
[4] = biological target: T1, Structural capsid protein (Human immunodeficiency virus 1, UniProt Q76129); assay: Binding affinity to monomeric HIV-1 NL4.3 capsid protein assessed as dissociation constant by SPR assay
T1 sequence (Q76129 whole entry): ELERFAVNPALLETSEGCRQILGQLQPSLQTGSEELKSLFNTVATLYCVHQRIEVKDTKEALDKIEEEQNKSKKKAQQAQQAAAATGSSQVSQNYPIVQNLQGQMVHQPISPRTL

[5] = biological target: T1, Structural capsid protein; assay: Binding affinity to hexameric HIV-1 NL4.3 capsid protein assessed as dissociation constant by SPR assay
[6] = tested on: Human immunodeficiency virus 1; assay: Antiviral activity against pseudotyped HIV-1 expressing luciferase-reporter transfected in HEK293T cells assessed as viral inhibition at early stage incubated for 48 hrs by Single-round infection assay; assay type: functional, organism-based
[7] = Half life in male Sprague-Dawley rat at 2 mg/kg, iv measured upto 24 hrs by LC-MS/MS analysis; assay type: ADME, organism-based; details: in vivo
[8] = Half life in male Sprague-Dawley rat at 10 mg/kg, sc measured upto 24 hrs by LC-MS/MS analysis; assay type: ADME, organism-based; details: in vivo
[9] = Tmax in male Sprague-Dawley rat at 2 mg/kg, iv measured upto 24 hrs by LC-MS/MS analysis; assay type: ADME, organism-based; details: in vivo
[10] = Tmax in male Sprague-Dawley rat at 10 mg/kg, sc measured upto 24 hrs by LC-MS/MS analysis; assay type: ADME, organism-based; details: in vivo
[11] = Cmax in male Sprague-Dawley rat at 2 mg/kg, iv measured upto 24 hrs by LC-MS/MS analysis; assay type: ADME, organism-based; details: in vivo
[12] = Cmax in male Sprague-Dawley rat at 10 mg/kg, sc measured upto 24 hrs by LC-MS/MS analysis; assay type: ADME, organism-based; details: in vivo
[13] = C0 in male Sprague-Dawley rat at 2 mg/kg, iv measured upto 24 hrs by LC-MS/MS analysis; assay type: ADME, organism-based; details: in vivo
[14] = AUC(0 to t) in male Sprague-Dawley rat at 2 mg/kg, iv measured upto 24 hrs by LC-MS/MS analysis; assay type: ADME, organism-based; details: in vivo
[15] = AUC(0 to t) in male Sprague-Dawley rat at 10 mg/kg, sc measured upto 24 hrs by LC-MS/MS analysis; assay type: ADME, organism-based; details: in vivo
[16] = Clearance in male Sprague-Dawley rat at 2 mg/kg, iv measured upto 24 hrs by LC-MS/MS analysis; assay type: ADME, organism-based; details: in vivo
[17] = MRT(0 to t) in male Sprague-Dawley rat at 2 mg/kg, iv measured upto 24 hrs by LC-MS/MS analysis; assay type: ADME, organism-based; details: in vivo
[18] = MRT(0 to t) in male Sprague-Dawley rat at 10 mg/kg, sc measured upto 24 hrs by LC-MS/MS analysis; assay type: ADME, organism-based; details: in vivo
[19] = MRT(0 to infinity) in male Sprague-Dawley rat at 2 mg/kg, iv measured upto 24 hrs by LC-MS/MS analysis; assay type: ADME, organism-based; details: in vivo
[20] = […] bioavailability in male Sprague-Dawley rat at 10 mg/kg measured upto 24 hrs by LC-MS/MS analysis; assay type: ADME, organism-based; details: in vivo
[21] = biological target: Structural capsid protein (Human immunodeficiency virus 1) (UniProt Q76129); assay: Binding affinity to HIV-1 hexameric capsid protein assessed as reduction in CPSF6 binding to capsid protein by competition assay based SPR analysis; details: filed as modulator
Structural capsid protein (Human immunodeficiency virus 1), sequence (Q76129 as listed by the source): as the sequence (Q76129 whole entry) above

[22] = tested on: Human immunodeficiency virus 1; assay: Antiviral activity against pseudotyped HIV-1 expressing luciferase-reporter transfected in HEK293T cells assessed as viral inhibition at late stage incubated for 48 hrs by Single-round infection assay; assay type: functional, organism-based
[23] = tested on: Human immunodeficiency virus 1; assay: Antiviral activity against pseudotyped HIV-1 expressing luciferase-reporter transfected in HEK293T cells assessed as increase in p24 level in progeny virions by ELISA analysis; assay type: functional, organism-based
[24] = Metabolic stability in human liver microsomes assessed as half life at 1 uM incubated for 60 mins by LC-MS/MS analysis; assay type: ADME, Microsome
[25] = tested on: Human immunodeficiency virus 1; assay: Induction of HIV-1 CA-NC assessed as capsid assembly at 10 uM by FRET analysis; details: filed as modulator
[26] = Metabolic stability in human liver microsomes assessed as intrinsic clearance at 1 uM incubated for 60 mins by LC-MS/MS analysis; assay type: ADME, Microsome; details: read-out: CLH
[27] = Acute toxicity in male Kunming mouse assessed as death at 1000 mg/kg, IG administered via gavage; assay type: organism-based; details: in vivo, po
[28] = Acute toxicity in male Kunming mouse assessed as convulsion at 1000 mg/kg, IG administered via gavage; assay type: organism-based; details: in vivo, po
[29] = Acute toxicity in male Kunming mouse assessed as sedation at 1000 mg/kg, IG administered via gavage; assay type: organism-based; details: in vivo, po
[30] = Acute toxicity in male Kunming mouse assessed as anorexia at 1000 mg/kg, IG administered via gavage; assay type: organism-based; details: in vivo, po
[31] = Acute toxicity in female Kunming mouse assessed as body weight gain at 1000 mg/kg, IG administered via gavage; assay type: organism-based; details: in vivo, po
[32] = Acute toxicity in female Kunming mouse assessed as death at 1000 mg/kg, IG administered via gavage; assay type: organism-based; details: in vivo, po
[33] = Acute toxicity in female Kunming mouse assessed as convulsion at 1000 mg/kg, IG administered via gavage; assay type: organism-based; details: in vivo, po
[34] = Acute toxicity in female Kunming mouse assessed as sedation at 1000 mg/kg, IG administered via gavage; assay type: organism-based; details: in vivo, po
[35] = Acute toxicity in female Kunming mouse assessed as anorexia at 1000 mg/kg, IG administered via gavage; assay type: organism-based; details: in vivo, po
[36] = Subacute toxicity in male Kunming mouse assessed as change in body weight at 50 mg/kg, po administered every other day for 14 days; assay type: organism-based; details: in vivo, 336 h, time 14 day
[37] = Subacute toxicity in male Kunming mouse assessed as tremor at 50 mg/kg, po administered every other day for 14 days; assay type: organism-based; details: in vivo, 336 h, time 14 day
[38] = Subacute toxicity in male Kunming mouse assessed as hypoactivity at 50 mg/kg, po administered every other day for 14 days; assay type: organism-based; details: in vivo, 336 h, time 14 day
[39] = Subacute toxicity in male Kunming mouse assessed as hunched posture at 50 mg/kg, po administered every other day for 14 days; assay type: organism-based; details: in vivo, 336 h, time 14 day
[40] = Subacute toxicity in male Kunming mouse assessed as piloerection at 50 mg/kg, po administered every other day for 14 days; assay type: organism-based; details: in vivo, 336 h, time 14 day
[41] = Subacute toxicity in male Kunming mouse assessed as scattered lymphocyte infiltration in heart at 50 mg/kg, po administered every other day for 14 days by H and E staining based analysis; assay type: organism-based; details: in vivo, 336 h, time 14 day
[42] = Subacute toxicity in male Kunming mouse assessed as focal lymphocyte infiltration in liver at 50 mg/kg, po administered every other day for 14 days by H and E staining based analysis; assay type: organism-based; details: in vivo, 336 h, time 14 day
[43] = Subacute toxicity in male Kunming mouse assessed as pathological damage in spleen at 50 mg/kg, po administered every other day for 14 days by H and E staining based analysis; assay type: organism-based; details: in vivo, 336 h, time 14 day
[44] = Subacute toxicity in male Kunming mouse assessed as pathological damage in kidney at 50 mg/kg, po administered every other day for 14 days by H and E staining based analysis; assay type: organism-based; details: in vivo, 336 h, time 14 day

In the case of `CN(C(=O)[C@H](Cc1cc(F)cc(F)c1)NC(=O)Cc1c[nH]c2ccc(O)cc12)c1ccc2scnc2c1`, the EC50 [1] is reported as 0.098 µM, the selectivity ratio [2] is reported as 49400 and the selectivity ratio [3] is reported as 1360. For the same molecule, the Kd [4] was 0.0811 µM, the Kd [5] was 0.0246 µM and the Activity [6] was “Active”. It also gave a half-life [7] of 11.9 min, a half-life [8] of 220 min and a Tmax [9] of 4.98 min. The Tmax [10] was 79.8 min, the Cmax [11] was 18.8 ng/mL and the Cmax [12] was 4.99 ng/mL. The C0 at 24 h [13] was 33.7 ng/mL, the AUC(0-t) at 24 h [14] was 5.53 ng·h/mL and the AUC(0-t) at 24 h [15] was 23.3 ng·h/mL. For the same molecule, the CL [16] was 4712.52 mL/min/kg, the MRT last at 24 h [17] was 7.74 min and the MRT last at 24 h [18] was 182 min. For the same molecule, the MRT inf [19] was 12.1 min, the bioavailability [20] was 84.2% and the Activity [21] was “Active”. For the same molecule, the Activity [22] was “Active”, the Activity [23] was “Active” and the half-life at 1 µM [24] was 91.3 min. For the same molecule, the Activity [25] was “Active”, the CLint scaled at 1 µM [26] was 15.2 mL/min/kg and the Activity [27] was “Non-toxic”. For the same molecule, the Activity [28] was “Non-toxic”, the Activity [29] was “Non-toxic” and the Activity [30] was “Non-toxic”. The Activity [31] was “Non-toxic”, the Activity [32] was “Non-toxic” and the Activity [33] was “Non-toxic”. The Activity [34] was “Non-toxic”, the Activity [35] was “Non-toxic” and the Activity [36] was “Non-toxic”. For the same molecule, the Activity [37] was “Non-toxic”, the Activity [38] was “Non-toxic” and the Activity [39] was “Non-toxic”. The Activity [40] was “Non-toxic”, the Activity [41] was “Non-toxic” and the Activity [42] was “Toxic”. The Activity [43] was “Non-toxic” and the Activity [44] was “Non-toxic”.
